The test system of series [1] is human neuroblastoma SK-N-MC cells. The series is described as follows: Protection against neuronal death induced by okadaic acid (inhibition of protein phosphatase-1), WST-1. It counts as cell-based. The note with it: NST0060 at 10 μM; 20 nM OA, 22 hours; significant with 4 and 10 μM. Here is the method:
(§1) The assay was performed on human neuroblastoma SK-N-MC cells in culture, maintained as described in section 2.1.
The inhibition caused by compound NST0060 with respect to cell death caused by treatment with okadaic acid (OA) which inhibits the activity of protein phosphatase-1 (PP1) was analyzed. OA is one of the most widely used drugs for studying the phosphorylation mechanism of the tau protein, involved in the pathogenesis and progression of AD. Inhibition of PP1 causes cytoskeleton alterations and mitochondrial damage. These cells, not exceeding 15 passages, were seeded on 96-well plates treated for adherent cells with a cell concentration of 5×10^4 cells/well; 3 wells of the plate were seeded for each assay condition.
After 24 hours of cell incubation (at 37° C. and 5% CO2), the cell treatments were performed with 100 μl of total volume for the following conditions: • Control: culture medium (medium) • Okadaic acid (OA): medium plus 20 nM OA, causing death of 50% of the cells. • OA plus NST0060: medium plus OA (20 nM) plus NST0060 at 1, 4, 10, 40 or 100 μM.
(§2) The cells were incubated (at 37° C. and 5% CO2) with these treatments for 22 hours, after which time WST-1 reagent (Roche) was added. The WST-1 test is based on the measurement of metabolic activity (method described in section 2.1).

Series [2] has the same test system. The series is described as follows: Protection against neuronal death induced by 3-nitropropionic acid (inhibition of succinate dehydrogenase), WST-1. The note with it: NST0060 at 40 μM; 30 μM 3-NP, 22 hours; significant in the range of 4 to 40 μM. It counts as cell-based. The method, then:
as §1
The inhibition caused by compound NST0060 with respect to cell death caused by treatment with 3-nitropropionic (3-NP) acid was analyzed. 3-NP is an irreversible inhibitor of the succinate dehydrogenase enzyme which in animal models causes oxidative stress and apoptotic cell death in the striatum and mimics neurochemical and anatomical changes associated with Huntington's disease (HD). These cells, not exceeding 15 passages, were seeded on 96-well plates treated for adherent cells with a cell concentration of 5×10^4 cells/well; 3 wells of the plate were seeded for each assay condition.
After 24 hours of cell incubation (at 37° C. and 5% CO2), the cell treatments were performed with 100 μl of total volume for the following conditions: • Control: culture medium (medium) • 3-Nitropropionic (3-NP): medium plus 30 μM 3-NP, causing death of 50% of the cells. • 3-NP plus NST0060: medium plus 3-NP (30 μM) plus NST0060 at 1, 4, 10, 40 or 100 μM.
as §2

The test system is the same in series [3]. The series is described as follows: Protection against neuronal death induced by tunicamycin (endoplasmic reticulum stress), WST-1. It counts as cell-based. Particulars: NST0060 at 4 μM; 24 μM tunicamycin, 22 hours; significant from 1 to 40 μM. Here is the method: as §1
The inhibition caused by compound NST0060 with respect to cell death caused by treatment with tunicamycin generating endoplasmic reticulum stress was analyzed. Tunicamycin is an inhibitor of protein N-glycosylation, causing abnormal protein folding in the endoplasmic reticulum, therefore said proteins are accumulated and cause stress, resulting in cell death. These cells, not exceeding 15 passages, were seeded on 96-well plates treated for adherent cells with a cell concentration of 5×10^4 cells/well; 3 wells of the plate were seeded for each assay condition.
After 24 hours of cell incubation (at 37° C. and 5% CO2), the cell treatments were performed with 100 μl of total volume for the following conditions: • Control: culture medium (medium) • Tunicamycin (TM): medium plus 24 μM tunicamycin, causing death of 50% of the cells. • TM plus NST0060: medium plus TM (24 μM) plus NST0060 at 1, 4, 10, 40 or 100 μM
as §2

The target in series [4] is T1, 3-hydroxy-3-methylglutaryl coenzyme A reductase (HMGR) (Homo sapiens, UniProt P04035).
T1 sequence (P04035 340-888 limits assumed): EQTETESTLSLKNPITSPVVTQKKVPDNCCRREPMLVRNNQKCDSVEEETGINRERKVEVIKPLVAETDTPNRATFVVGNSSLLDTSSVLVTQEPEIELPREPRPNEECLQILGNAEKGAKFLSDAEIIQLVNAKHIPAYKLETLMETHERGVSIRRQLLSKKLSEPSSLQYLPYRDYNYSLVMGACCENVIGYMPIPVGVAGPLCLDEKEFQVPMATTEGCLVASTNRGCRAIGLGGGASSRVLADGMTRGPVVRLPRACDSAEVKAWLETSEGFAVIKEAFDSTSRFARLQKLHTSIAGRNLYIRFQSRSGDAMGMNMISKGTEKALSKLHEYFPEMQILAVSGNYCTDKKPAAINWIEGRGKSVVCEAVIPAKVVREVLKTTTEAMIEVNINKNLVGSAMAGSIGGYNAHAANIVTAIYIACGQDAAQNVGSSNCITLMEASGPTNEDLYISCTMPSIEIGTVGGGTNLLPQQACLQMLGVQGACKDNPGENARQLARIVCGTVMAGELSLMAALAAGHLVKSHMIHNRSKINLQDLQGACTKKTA
As to the kind of experiment: Inhibition of HMGR enzyme activity in vitro, NADPH absorbance at 340 nm. In kind it is biochemical. The note with it: active forms (activated with 0.1 N NaOH); five independent assays in duplicate. The method, then: The assay was carried out in a 96-well plate, with a total reaction volume of 200 μl.

For series [5], the system named is zebrafish (Danio rerio, AB strain) embryos. As to the kind of experiment: Zebrafish embryo acute toxicity, mortality (OECD C.15). It counts as in vivo. Particulars: for Mortality (dead larvae with respect to the total): 3 days. Here is the method:
30 control animals treated with dilution water and with daily replacement until the end of the assay.
30 animals treated with compound NST0060 (3 embryos for every ten replicates) diluted in dilution water at doses between 1 and 100 mg/Kg and with daily replacement of the substance during the days that the assay lasted.
After the time of exposure to the substances under study, the mortality record of the larvae was determined, results being shown in Table 2.

Series [6] can be described thus: in vitro. The note with it: PAMPA, pH 7.4.
From the text: To that end, the BBB was mimicked in an in vitro system that allowed evaluating the compound without using cells, and where the so-called PAMPA (Parallel Artificial Membrane Permeation Assay) was used, using a sandwich system considering the crossing of compounds by means of passive diffusion.
A mixture of marketed lipids derived from pig brain with a phospholipid composition very similar to that which forms the barrier and known as PBL (Porcine Polar Brain Lipid) was used to mimic the blood-brain barrier. This compound was stored at −20° C. dissolved in dodecane at 100 μg/ml in glass vials.
To that end, a 1/100 dilution of the compounds was performed, being the DMSO content in all cases 1%.
Five microliters of PBL at 20 μg/ml prepared from the frozen stock at 100 μg/mL were added in a 96-well filter plate, with a PVDF membrane and a pore size of 45 μm (MAIPN4550, Millipore). After 2 minutes, 300 μl of the phosphate buffer used to dilute the compounds were added. […] After that time, 100 μl from the wells of the donor plates and acceptor plates were transferred to a special 96-well plate for UV reading. […] The percentage of barrier crossing as well as the effective permeability (Pe) were calculated from the spectrophotometric data. […]
[Drug]acceptor=Absorbance of the acceptor well
[Drug]equilibrium=Absorbance of the mean of the basal wells/2 […]
For series [7], the system named is zebrafish (Danio rerio, AB strain) embryos. As to the kind of experiment: Zebrafish embryo acute toxicity, percentage of healthy larvae. Particulars: mean±SD.

Each structure is given as a SMILES string.

Turning to `CCCC(CCC)C(=O)O[C@H]1C[C@@H](C)C=C2C=C[C@H](C)[C@H](CC[C@@H]3C[C@@H](O)CC(=O)O3)[C@H]21` [NST0060, 2-propylpentanoic acid (1S,3R,7S,8S,8aR)-1,2,3,7,8,8a-hexahydro-3,7-dimethyl-8-[2-[(2R,4R)-tetrahydro-4-hydroxy-6-oxo-2H-pyran-2-yl]ethyl]-1-naphthalenyl ester], the “protection against cell death caused by OA” value in series [1] was found to be 83%. Moreover, in series [2], the “protection against cell death caused by 3-NP” value was 32%. In addition, in series [3], the “protection against cell death caused by TM” value came out at 42%. The compound further yielded an IC50 in series [4] of 0.126 ± 0.0346 µM. Besides, the “Mortality (dead larvae with respect to the total)” value is 0/30 in series [5] (Dose 1 mg/kg); 0/30 in series [5] (Dose 3 mg/kg); 7/30 in series [5] (Dose 10 mg/kg); 30/30 in series [5] (Dose 30 mg/kg); 30/30 in series [5] (Dose 100 mg/kg). Further, in series [5] (dose of 10 mg/Kg, 72 h), the “deaths out of 30 animals” value came out at 7. For the same compound, the Papp at 18 h, 100 μM in series [6] amounted to 8.8 ± 1.2 ×10⁻⁶ cm/s. Further, the results for the “percentage of healthy larvae” value in series [7] (dose of 1 mg/Kg) and in series [7] (dose of 3 mg/Kg) were 100±0.0% and 86.7±6.2%, respectively.

For the origin of these results see patent US20130197073A1, “HYPOCHOLESTEROLEMIC, ANTI-INFLAMMATORY AND ANTIEPILEPTIC NEUROPROTECTIVE COMPOUND” (NEURON BIOPHARMA, S.A., priority 2010, published 2013).
